Measurements: PubChem BioAssay AID2060485 (Molecular Pharmacology Branch, DTP, NCI, 2025)

Test system: A375 multi-cell spheroids with HUVEC/MSC, viability
Test: Anticancer human tumor A375 cell line growth inhibition [GQUAD];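 further: spheroids exposed to compounds for seven days before readout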
Settings: for IC50: curve of first compound; for viability, T/C: stronger effect = lower value
Procedure, shortened: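 Multi-cell-type spheroids of tumor cells with HUVEC and mesenchymal stem cells, treated with drug combinations. Concentrations descend in half-log steps from near clinical Cmax, or from 10 microM where Cmax is unknown; viability read-out.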

[1] = second compound 0.0316 µM, first compound 0.0316 µM
[2] = second compound 0.0316 µM, first compound 0.1 µM
[3] = second compound 0.0316 µM, first compound 0.316 µM
[4] = second compound 0.0316 µM, first compound 1 µM
[5] = second compound 0.0316 µM, first compound 3.16 µM
[6] = second compound 0.0316 µM, first compound 10 µM
[7] = second compound 0.1 µM, first compound 0.0316 µM
[8] = second compound 0.1 µM, first compound 0.1 µM
[9] = second compound 0.1 µM, first compound 0.316 µM
[10] = second compound 0.1 µM, first compound 1 µM
[11] = second compound 0.1 µM, first compound 3.16 µM
[12] = second compound 0.1 µM, first compound 10 µM
[13] = second compound 0.316 µM, first compound 0.0316 µM
[14] = second compound 0.316 µM, first compound 0.1 µM
[15] = second compound 0.316 µM, first compound 0.316 µM
[16] = second compound 0.316 µM, first compound 1 µM
[17] = second compound 0.316 µM, first compound 3.16 µM
[18] = second compound 0.316 µM, first compound 10 µM
[19] = second compound 1 µM, first compound 0.0316 µM
[20] = second compound 1 µM, first compound 0.1 µM
[21] = second compound 1 µM, first compound 0.316 µM
[22] = second compound 1 µM, first compound 1 µM
[23] = second compound 1 µM, first compound 3.16 µM
[24] = second compound 1 µM, first compound 10 µM
[25] = second compound 3.16 µM, first compound 0.0316 µM
[26] = second compound 3.16 µM, first compound 0.1 µM
[27] = second compound 3.16 µM, first compound 0.316 µM
[28] = second compound 3.16 µM, first compound 1 µM
[29] = second compound 3.16 µM, first compound 3.16 µM
[30] = second compound 3.16 µM, first compound 10 µM
[31] = second compound 10 µM, first compound 0.0316 µM
[32] = second compound 10 µM, first compound 0.1 µM
[33] = second compound 10 µM, first compound 0.316 µM
[34] = second compound 10 µM, first compound 1 µM
[35] = second compound 10 µM, first compound 3.16 µM
[36] = second compound 10 µM, first compound 10 µM

Question: Which results are given for `CC(=O)O[C@H]1C(=O)[C@@]2(C)[C@H]([C@H](OC(=O)c3ccccc3)[C@]3(O)C[C@H](OC(=O)[C@H](O)[C@@H](NC(=O)c4ccccc4)c4ccccc4)C(C)=C1C3(C)C)[C@]1(OC(C)=O)CO[C@@H]1C[C@@H]2O` + Cc1[nH]c2ccc(F)cc2c1-c1nc2c3cccnc3c3ncccc3c2[nH]1?
Answer: IC50 (second compound 0.0316 µM): 46.8 nM; IC50 (second compound 0.1 µM): 52.3 nM; IC50 (second compound 0.316 µM): 52.5 nM; IC50 (second compound 1 µM): 50.9 nM; IC50 (second compound 3.16 µM): < 31.6 nM; IC50 (second compound 10 µM): < 31.6 nM; viability, T/C [1]: 67.1%; viability, T/C [2]: 16.8%; viability, T/C [3]: 9.66%; viability, T/C [4]: 8.81%; viability, T/C [5]: 9.39%; viability, T/C [6]: 10.1%; viability, T/C [7]: 73.9%; viability, T/C [8]: 19.3%; viability, T/C [9]: 10.3%; viability, T/C [10]: 11.5%; viability, T/C [11]: 7.58%; viability, T/C [12]: 12.6%; viability, T/C [13]: 72.2%; viability, T/C [14]: 21.9%; viability, T/C [15]: 11.6%; viability, T/C [16]: 11.8%; viability, T/C [17]: 10.5%; viability, T/C [18]: 13.2%; viability, T/C [19]: 68.5%; viability, T/C [20]: 23.8%; viability, T/C [21]: 14.5%; viability, T/C [22]: 13.7%; viability, T/C [23]: 13.9%; viability, T/C [24]: 17.3%; viability, T/C [25]: 25.6%; viability, T/C [26]: 16%; viability, T/C [27]: 15%; viability, T/C [28]: 19.8%; viability, T/C [29]: 14.5%; viability, T/C [30]: 12.9%; viability, T/C [31]: 33.6%; viability, T/C [32]: 22.9%; viability, T/C [33]: 18.8%; viability, T/C [34]: 18.8%; viability, T/C [35]: 17.9%; viability, T/C [36]: 18.8%

Question: Which results are given for `CCCS(=O)(=O)Nc1ccc(F)c(C(=O)c2c[nH]c3ncc(-c4ccc(Cl)cc4)cc23)c1F` + Cc1[nH]c2ccc(F)cc2c1-c1nc2c3cccnc3c3ncccc3c2[nH]1?
Answer: IC50 (second compound 0.0316 µM): < 31.6 nM; IC50 (second compound 0.1 µM): < 31.6 nM; IC50 (second compound 0.316 µM): < 31.6 nM; IC50 (second compound 1 µM): < 31.6 nM; IC50 (second compound 3.16 µM): < 31.6 nM; IC50 (second compound 10 µM): < 31.6 nM; viability, T/C [1]: 47.1%; viability, T/C [2]: 14.9%; viability, T/C [3]: 7.54%; viability, T/C [4]: 5.63%; viability, T/C [5]: 6%; viability, T/C [6]: 6.44%; viability, T/C [7]: 40.4%; viability, T/C [8]: 15.4%; viability, T/C [9]: 8.57%; viability, T/C [10]: 6.32%; viability, T/C [11]: 5.78%; viability, T/C [12]: 5.39%; viability, T/C [13]: 43.6%; viability, T/C [14]: 13.7%; viability, T/C [15]: 8.7%; viability, T/C [16]: 6.15%; viability, T/C [17]: 5.37%; viability, T/C [18]: 4.44%; viability, T/C [19]: 32%; viability, T/C [20]: 14.6%; viability, T/C [21]: 7.98%; viability, T/C [22]: 5.57%; viability, T/C [23]: 5%; viability, T/C [24]: 1.74%; viability, T/C [25]: 24.6%; viability, T/C [26]: 10%; viability, T/C [27]: 6.35%; viability, T/C [28]: 3.57%; viability, T/C [29]: 1.79%; viability, T/C [30]: 0.23%; viability, T/C [31]: 30.4%; viability, T/C [32]: 13.4%; viability, T/C [33]: 7.1%; viability, T/C [34]: 4.44%; viability, T/C [35]: 3.27%; viability, T/C [36]: 0.2%

Question: How did the IC50 (second compound 0.0316 µM) turn out when `COc1cc(C2c3cc4c(cc3C(OC3OC5COC(C)OC5C(O)C3O)C3COC(=O)C23)OCO4)cc(OC)c1O` (stereo unspecified) + Cc1[nH]c2ccc(F)cc2c1-c1nc2c3cccnc3c3ncccc3c2[nH]1 was run?
Answer: Its IC50 is 1630 nM.

Question: And the IC50 (second compound 0.1 µM)?
Answer: Its IC50 is 1010 nM.

Question: What about the IC50 (second compound 0.316 µM) of the same compound?
Answer: Its IC50 is 1840 nM.

Question: What about the IC50 (second compound 1 µM) of the same compound?
Answer: Its IC50 is 1810 nM.

Question: And the IC50 (second compound 3.16 µM)?
Answer: The IC50 was 1300 nM.

Question: And the IC50 (second compound 10 µM)?
Answer: The IC50 was 969 nM.

Question: And the viability, T/C [1]?
Answer: Its viability, T/C is 109%.

Question: And the viability, T/C [2]?
Answer: The viability, T/C was 109%.

Question: And the viability, T/C [3]?
Answer: The viability, T/C was 97.6%.

Question: What about the viability, T/C [4] of the same compound?
Answer: The viability, T/C was 59.6%.

Question: And the viability, T/C [5]?
Answer: The viability, T/C was 37.6%.

Question: What about the viability, T/C [6] of the same compound?
Answer: The viability, T/C was 26.9%.

Question: What about the viability, T/C [7] of the same compound?
Answer: Its viability, T/C is 97.7%.

Question: And the viability, T/C [8]?
Answer: The viability, T/C was 134%.

Question: And the viability, T/C [9]?
Answer: The viability, T/C was 94.8%.

Question: And the viability, T/C [10]?
Answer: Its viability, T/C is 51.5%.

Question: What about the viability, T/C [11] of the same compound?
Answer: Its viability, T/C is 33.1%.

Question: And the viability, T/C [12]?
Answer: The viability, T/C was 27.7%.

Question: And the viability, T/C [13]?
Answer: The viability, T/C was 101%.

Question: And the viability, T/C [14]?
Answer: Its viability, T/C is 156%.

Question: What about the viability, T/C [15] of the same compound?
Answer: Its viability, T/C is 89.2%.

Question: And the viability, T/C [16]?
Answer: The viability, T/C was 68.2%.

Question: What about the viability, T/C [17] of the same compound?
Answer: Its viability, T/C is 40.2%.

Question: And the viability, T/C [18]?
Answer: The viability, T/C was 26%.

Question: What about the viability, T/C [19] of the same compound?
Answer: The viability, T/C was 109%.

Question: And the viability, T/C [20]?
Answer: The viability, T/C was 130%.

Question: And the viability, T/C [21]?
Answer: The viability, T/C was 89.7%.

Question: What about the viability, T/C [22] of the same compound?
Answer: The viability, T/C was 62.5%.

Question: What about the viability, T/C [23] of the same compound?
Answer: Its viability, T/C is 43.2%.

Question: What about the viability, T/C [24] of the same compound?
Answer: Its viability, T/C is 29%.

Question: What about the viability, T/C [25] of the same compound?
Answer: Its viability, T/C is 69%.

Question: What about the viability, T/C [26] of the same compound?
Answer: Its viability, T/C is 86.6%.

Question: And the viability, T/C [27]?
Answer: The viability, T/C was 69.8%.

Question: And the viability, T/C [28]?
Answer: Its viability, T/C is 51.6%.

Question: What about the viability, T/C [29] of the same compound?
Answer: Its viability, T/C is 40.2%.

Question: What about the viability, T/C [30] of the same compound?
Answer: The viability, T/C was 27.8%.

Question: What about the viability, T/C [31] of the same compound?
Answer: The viability, T/C was 78.9%.

Question: And the viability, T/C [32]?
Answer: The viability, T/C was 87.4%.

Question: What about the viability, T/C [33] of the same compound?
Answer: Its viability, T/C is 76.1%.

Question: And the viability, T/C [34]?
Answer: The viability, T/C was 48.2%.

Question: What about the viability, T/C [35] of the same compound?
Answer: Its viability, T/C is 34.4%.

Question: And the viability, T/C [36]?
Answer: The viability, T/C was 25.6%.
